Here are results for 23 compounds from ChEMBL document CHEMBL1201862, “PubChem BioAssay data set” (2004).

Among the test systems are HOP-18; DMS-114; KM-20L2; PC-3; XF498; MDA-N; M19-MEL; SNB-78; RXF 631.
Common to all, as to test: NCI tumour cell line growth inhibition, 48 h

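1) Cells in 96-well plates. 2) Compound, 48 h, 5 concentrations. 3) Linear interpolation between surrounding doses. 4) Unreached endpoint = highest concentration. The concentration for 50% growth inhibition is given as GI50.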 Calls of active or inactive are those of the source. No stated cut-off is given here; in the data, active = GI50 up to about 1.1 µM and inactive = higher. Some results are limits rather than exact numbers.

As for `O=C1N[C@@H]([C@H]2CC[C@H](Cl)CN2)C(=O)N[C@H]1[C@H]1CC[C@H](Cl)CN1`, the GI50 was 5.86 µM (inactive) in the test with HOP-18; 0.269 µM (active) with DMS-114; 4.93 µM (inactive) in the test with KM-20L2; 0.804 µM (active) with PC-3; 0.184 µM (active) in the test with XF498; 0.555 µM (active) with MDA-N. Also, the GI50 in the test with M19-MEL was 2.47 µM (inactive); in the test with SNB-78, 2.94 µM (inactive).

With `COc1cc([C@@H]2c3cc4c(cc3[C@@H](NCc3ccccc3F)C3COC(=O)[C@@H]32)OCO4)cc(OC)c1O` (stereo not given in full), the GI50 in the test on HOP-18 was > 100 µM (inactive); in the test on DMS-114, 3.45 µM (inactive); with KM-20L2, 2.71 µM (inactive); with RXF 631 it was 2.18 µM (inactive); in the test with M19-MEL, 3.47 µM (inactive); with SNB-78, 25.8 µM (inactive).

With `O=C1c2ccccc2C(=O)c2[nH]cnc21`, the GI50 was 31.5 µM (inactive) in the test with DMS-114, 32.7 µM (inactive) in the test on XF498, 20.4 µM (inactive) in the test on M19-MEL and 41.3 µM (inactive) in the test with SNB-78.

Take `C/C(=N\NC(=S)N1CCN(c2ccccn2)CC1)c1ncccn1`: the GI50 in the test with HOP-18 was 1.64 µM (inactive); in the test with DMS-114, 0.00233 µM (active); with KM-20L2, 0.00984 µM (active); with PC-3 it was 4.37 µM (inactive); in the test on XF498, 0.0247 µM (active); in the test on MDA-N, 6.93 µM (inactive). Moreover, the results for the GI50 in the test on M19-MEL and with SNB-78 were 0.638 µM (active) and 6.05 µM (inactive), respectively.

In the case of `COc1ccc(/N=C(/[N-]n2c(=O)c(C)nn(C)c2=S)N(c2ccc(OC)cc2)c2n[n+]3c(=O)c(C)nn(C)c3s2)cc1`, the GI50 in the test on HOP-18, in the test with DMS-114, in the test on KM-20L2, with M19-MEL and in the test with SNB-78 was > 100 µM (inactive) each time.

Take `CCOC(=O)C1Cc2[nH]c3ccccc3c2C(C)C1C` (stereo not given): the GI50 in the test on DMS-114 is 22.3 µM (inactive); with KM-20L2, 16.8 µM (inactive); in the test on XF498 it was 16.7 µM (inactive); with SNB-78, 19.4 µM (inactive).

Turning to `Nc1nc(-c2ccco2)cc(-c2ccc(CO)o2)n1`, the GI50 in the test with DMS-114, in the test with KM-20L2, in the test with XF498, in the test on M19-MEL and with SNB-78 was > 100 µM (inactive) in each case.

With `CCOC(=O)c1ccc(/N=N/c2cc(C(=O)OCC)ccc2O)cc1`, the GI50 was > 100 µM (inactive) in the test on HOP-18; > 100 µM (inactive) with DMS-114; > 100 µM (inactive) with KM-20L2; 2.13 µM (inactive) in the test on XF498; > 100 µM (inactive) in the test with M19-MEL.

On to `Cc1cc(NS(=O)(=O)c2ccc(Nc3c4ccccc4nc4c(C(=O)N5CCN(CCO)CC5)cccc34)cc2)no1`, for which the GI50 with HOP-18, in the test with DMS-114, in the test with KM-20L2, in the test with XF498, in the test on M19-MEL and in the test with SNB-78 was > 100 µM (inactive) throughout.

In the case of `O=C1C[C@@H]2[C@@H](c3ccccc3)[C@@H]3C(=O)c4ccccc4NC(=O)[C@H]3[C@]2(O)c2ccccc2N1`, the GI50 in the test with DMS-114, in the test with KM-20L2, with XF498, with M19-MEL and with SNB-78 was > 100 µM (inactive) each time.

For the compound `CC(=O)CC(=O)Nc1ccccc1[N+](=O)[O-]`, the GI50 in the test on HOP-18, in the test on DMS-114, in the test with KM-20L2, in the test on XF498, in the test with M19-MEL and with SNB-78 was > 100 µM (inactive) each time.

On to `Cc1cc(-c2ccccc2)nc(Nc2nc3ccccc3o2)n1`, for which the GI50 in the test with DMS-114, in the test with KM-20L2, in the test with XF498, with M19-MEL and in the test with SNB-78 was > 100 µM (inactive) in each case.

Turning to `Cc1nc2c(o1)/C(=N\c1ccccc1)c1nc(C)oc1/C2=N/c1ccccc1`, the GI50 was 17.3 µM (inactive) in the test with HOP-18; 25.5 µM (inactive) with DMS-114; 25.5 µM (inactive) with KM-20L2; 18 µM (inactive) in the test on XF498; 21.6 µM (inactive) in the test with M19-MEL; > 100 µM (inactive) in the test on SNB-78.

For the compound `COc1ccc(-c2cc(O)c3cc(OC)ccc3n2)cc1`, the GI50 in the test with HOP-18, in the test on DMS-114, in the test on KM-20L2, in the test with M19-MEL and in the test with SNB-78 was > 100 µM (inactive) throughout.

Consider `CS(=O)(=O)N(CCC#N)c1ccc(/C=N/NC(=O)CC(=O)Nc2cccc(Cl)c2)cc1`, for which the GI50 in the test on HOP-18, with DMS-114, with KM-20L2, with M19-MEL and with SNB-78 was > 100 µM (inactive) throughout.

On to `[N-]=[N+]=NC(CCl)c1cn([C@H]2C[C@H](O)[C@@H](CO)O2)c(=O)[nH]c1=O` (stereo not given in full), for which the GI50 with HOP-18, in the test with DMS-114, in the test with KM-20L2, in the test with M19-MEL and with SNB-78 was > 100 µM (inactive) in each case.

Turning to `CC(=O)OC1c2ccccc2CCCCCCC12OCCO2` (stereo not given), the GI50 was > 100 µM (inactive) in the test with HOP-18, 61.5 µM (inactive) with DMS-114, > 100 µM (inactive) in the test with KM-20L2 and > 100 µM (inactive) in the test with SNB-78.

With `CO[C@]12CCC(=O)N1C=Cc1c2[nH]c2ccccc12`, the GI50 with HOP-18, with DMS-114, in the test with M19-MEL and in the test on SNB-78 was > 100 µM (inactive) each time.

On to `c1cc2nnsc2s1`, for which the GI50 in the test with HOP-18, with KM-20L2, with XF498, in the test with M19-MEL and in the test with SNB-78 was > 100 µM (inactive) throughout.

As to `CC(=O)OCCOCNC(=S)N/N=C/c1ccc(Br)s1`, the GI50 in the test with HOP-18 was > 100 µM (inactive); in the test with DMS-114, 33.3 µM (inactive); in the test with KM-20L2, > 100 µM (inactive); with XF498, > 100 µM (inactive); in the test on M19-MEL, > 100 µM (inactive); in the test on SNB-78 it was > 100 µM (inactive).

For the compound `CCCn1c(SCCSc2c3ccccc3c(-c3nc(F)nc(F)n3)n2CCC)c2ccccc2c1-c1nc(F)nc(F)n1`, the GI50 with HOP-18 was > 100 µM (inactive); in the test with KM-20L2 it was 91.6 µM (inactive); with SNB-78, > 100 µM (inactive).

Regarding `NCCN1C(=O)C2C3c4ccccc4C(c4ccccc43)C2C1=O` (stereo not given), the GI50 in the test with HOP-18, in the test on DMS-114, in the test with KM-20L2, in the test with M19-MEL and with SNB-78 was > 100 µM (inactive) throughout.

As for `COC(=O)C(=O)C(C(=O)C(=O)Nc1ccc([N+](=O)[O-])cc1C#N)c1nc2ccc([N+](=O)[O-])cc2nc1O` (stereo not given), the GI50 in the test on HOP-18 is 34.8 µM (inactive); in the test with DMS-114, > 100 µM (inactive); in the test with KM-20L2, > 100 µM (inactive); with M19-MEL it was > 100 µM (inactive); with SNB-78, > 100 µM (inactive).
